# Several values for one entry are separate records, joined by “and”; a condition that tells them apart may be missing. Equal entries are not always repeated.
# System: HEK293 cells
# Experiment: Endogenous ceramide, HexCer and SM levels in cells treated 24 h, targeted LC-MS/MS
# Format: cell-based
# Details: HEK293 cells, 24 h
# Protocol: Lipids were then extracted using MTBE/methanol/water as described above.
# HEK293 cell culture experiment: Levels of each lipid in P053-treated HEK293 cells were normalised to the mean of the vehicle control group, and each concentration was compared to the control using ANOVA with Dunnett’s post-test. P values were adjusted for multiple comparisons in GraphPad PRISM.
# Supplementary Figure 1. Ceramide, SM, and HexCer levels in HEK293 cells treated with
# P053. Absolute lipid levels were determined by targeted LC-MS/MS, relative to external
# standard curves. Results are mean ± SEM (n = 4) from one of two identical experiments.
# Statistically significant results, based on two independent experiments, are as indicated in
# Figure 2b-d. Raw data for these figures is provided in Supplementary Data File 1.
compound,measurement,setting,value
"C[C@@](N)(CO)CCc1ccc(OCc2ccc(Cl)c(Cl)c2)cc1 [P053, (S)-2-amino-4-(4-(3,4-dichlorobenzyloxy)phenyl)-2-methylbutan-1-ol]",16:0 Cer level,P053 100 nM,93.0789 percentage of the vehicle control group and 87.8624 percentage of the vehicle control group and 90.7567 percentage of the vehicle control group and 99.4946 percentage of the vehicle control group and 119.082 percentage of the vehicle control group and 99.8119 percentage of the vehicle control group and 116.788 percentage of the vehicle control group and 98.8463 percentage of the vehicle control group
same,16:0 HexCer level,P053 100 nM,72.1291 percentage of the vehicle control group and 81.3101 percentage of the vehicle control group and 75.1757 percentage of the vehicle control group and 88.1626 percentage of the vehicle control group and 92.7296 percentage of the vehicle control group and 94.3662 percentage of the vehicle control group and 88.291 percentage of the vehicle control group and 103.879 percentage of the vehicle control group
same,16:0 SM level,P053 100 nM,96.6683 percentage of the vehicle control group and 97.496 percentage of the vehicle control group and 96.0726 percentage of the vehicle control group and 98.7215 percentage of the vehicle control group and 93.8292 percentage of the vehicle control group and 95.9275 percentage of the vehicle control group and 94.8581 percentage of the vehicle control group and 102.543 percentage of the vehicle control group
same,16:1 SM level,P053 100 nM,104.314 percentage of the vehicle control group and 87.7756 percentage of the vehicle control group and 92.2071 percentage of the vehicle control group and 111.506 percentage of the vehicle control group and 103.607 percentage of the vehicle control group and 109.147 percentage of the vehicle control group and 99.9145 percentage of the vehicle control group and 113.03 percentage of the vehicle control group
same,18:0 Cer level,P053 100 nM,51.8361 percentage of the vehicle control group and 34.0436 percentage of the vehicle control group and 43.3209 percentage of the vehicle control group and 47.0876 percentage of the vehicle control group and 49.1716 percentage of the vehicle control group and 60.878 percentage of the vehicle control group and 53.1013 percentage of the vehicle control group and 34.6023 percentage of the vehicle control group
same,18:0 HexCer level,P053 100 nM,26.076 percentage of the vehicle control group and 45.6733 percentage of the vehicle control group and 33.7976 percentage of the vehicle control group and 35.7543 percentage of the vehicle control group and 29.3831 percentage of the vehicle control group and 38.4787 percentage of the vehicle control group and 45.094 percentage of the vehicle control group and 48.7 percentage of the vehicle control group
same,18:0 SM level,P053 100 nM,58.3863 percentage of the vehicle control group and 60.4391 percentage of the vehicle control group and 60.0968 percentage of the vehicle control group and 58.0444 percentage of the vehicle control group and 61.8417 percentage of the vehicle control group and 67.9073 percentage of the vehicle control group and 68.1366 percentage of the vehicle control group and 74.9383 percentage of the vehicle control group
same,18:1 SM level,P053 100 nM,67.1121 percentage of the vehicle control group and 61.0781 percentage of the vehicle control group and 66.2487 percentage of the vehicle control group and 67.0185 percentage of the vehicle control group and 69.283 percentage of the vehicle control group and 68.5826 percentage of the vehicle control group and 71.1925 percentage of the vehicle control group
same,20:0 Cer level,P053 100 nM,85.7665 percentage of the vehicle control group and 109.856 percentage of the vehicle control group and 101.721 percentage of the vehicle control group and 86.1177 percentage of the vehicle control group and 103.673 percentage of the vehicle control group and 96.5034 percentage of the vehicle control group and 78.6868 percentage of the vehicle control group
same,22:0 Cer level,P053 100 nM,109.852 percentage of the vehicle control group and 94.2148 percentage of the vehicle control group and 84.7703 percentage of the vehicle control group and 98.1236 percentage of the vehicle control group and 119.57 percentage of the vehicle control group and 118.497 percentage of the vehicle control group and 136.979 percentage of the vehicle control group and 110.794 percentage of the vehicle control group
same,22:0 HexCer level,P053 100 nM,96.8671 percentage of the vehicle control group and 87.3308 percentage of the vehicle control group and 81.4727 percentage of the vehicle control group and 94.5887 percentage of the vehicle control group and 107.975 percentage of the vehicle control group and 124.49 percentage of the vehicle control group and 104.798 percentage of the vehicle control group and 129.338 percentage of the vehicle control group
same,22:0 SM level,P053 100 nM,88.1464 percentage of the vehicle control group and 112.339 percentage of the vehicle control group and 83.7907 percentage of the vehicle control group and 79.4494 percentage of the vehicle control group and 115.966 percentage of the vehicle control group and 112.687 percentage of the vehicle control group and 121.861 percentage of the vehicle control group and 131.998 percentage of the vehicle control group
same,22:1 SM level,P053 100 nM,110.7 percentage of the vehicle control group and 102.614 percentage of the vehicle control group and 109.89 percentage of the vehicle control group and 108.27 percentage of the vehicle control group and 108.462 percentage of the vehicle control group and 113.237 percentage of the vehicle control group and 107.396 percentage of the vehicle control group and 108.45 percentage of the vehicle control group
same,24:0 HexCer level,P053 100 nM,91.3427 percentage of the vehicle control group and 87.2698 percentage of the vehicle control group and 81.8027 percentage of the vehicle control group and 92.8624 percentage of the vehicle control group and 100.187 percentage of the vehicle control group and 107.186 percentage of the vehicle control group and 106.263 percentage of the vehicle control group and 116.702 percentage of the vehicle control group
same,24:0 SM level,P053 100 nM,117 percentage of the vehicle control group and 90.9141 percentage of the vehicle control group and 93.8706 percentage of the vehicle control group and 115.93 percentage of the vehicle control group and 114.197 percentage of the vehicle control group and 134.57 percentage of the vehicle control group and 140.981 percentage of the vehicle control group
same,24:1 Cer level,P053 100 nM,110.817 percentage of the vehicle control group and 85.3956 percentage of the vehicle control group and 97.052 percentage of the vehicle control group and 96.6841 percentage of the vehicle control group and 128.871 percentage of the vehicle control group and 121.829 percentage of the vehicle control group and 142.778 percentage of the vehicle control group and 120.748 percentage of the vehicle control group
same,24:1 HexCer level,P053 100 nM,91.7407 percentage of the vehicle control group and 95.5309 percentage of the vehicle control group and 96.8003 percentage of the vehicle control group and 101.48 percentage of the vehicle control group and 104.186 percentage of the vehicle control group and 105.129 percentage of the vehicle control group and 100.754 percentage of the vehicle control group and 113.013 percentage of the vehicle control group
same,24:1 SM level,P053 100 nM,111.218 percentage of the vehicle control group and 94.5875 percentage of the vehicle control group and 99.337 percentage of the vehicle control group and 100.942 percentage of the vehicle control group and 110.843 percentage of the vehicle control group and 105.998 percentage of the vehicle control group and 112.241 percentage of the vehicle control group and 112.423 percentage of the vehicle control group
same,14:0 SM level,P053 300 nM,100.258 percentage of the vehicle control group and 95.2604 percentage of the vehicle control group and 95.8152 percentage of the vehicle control group and 99.1466 percentage of the vehicle control group and 109.96 percentage of the vehicle control group and 116.62 percentage of the vehicle control group and 129.695 percentage of the vehicle control group
same,16:0 Cer level,P053 300 nM,91.1433 percentage of the vehicle control group and 77.1433 percentage of the vehicle control group and 90.5634 percentage of the vehicle control group and 83.6347 percentage of the vehicle control group and 92.4764 percentage of the vehicle control group and 98.9865 percentage of the vehicle control group and 90.2518 percentage of the vehicle control group
same,16:0 HexCer level,P053 300 nM,76.4857 percentage of the vehicle control group and 73.433 percentage of the vehicle control group and 81.5302 percentage of the vehicle control group and 81.9705 percentage of the vehicle control group and 86.9585 percentage of the vehicle control group and 88.1949 percentage of the vehicle control group and 93.4284 percentage of the vehicle control group

# From article PMC6104039 (Nature Communications, 2018)
